“Also recorded” adds a separate entry of the source. Like-named read-outs stand apart in the source and are kept apart here.
What was measured:
[1] = Potentiometric titration, ligand protonation constants; type: physicochemical
[2] = type: physicochemical
[3] = test system: B. subtilis HB5600 (dhbA∷spc); assay: Disc diffusion growth promotion assay, HB5600; type: cell-based; details: in the presence of 2,2′-dipyridyl
[4] = test system: B. subtilis HB5625 (feuA∷spc dhbA∷mls); assay: Disc diffusion growth promotion assay, HB5625; type: cell-based; details: in the presence of 2,2′-dipyridyl
[5] = test system: esterase BesA; assay: BesA-catalyzed hydrolysis of apo siderophores followed by HPLC; type: biochemical, B. cereus ATCC 14579; details: 72 nM enzyme, 64 μM siderophore
[6] = biological target: substrate-binding protein FeuA (Bacillus subtilis, UniProt P40409); assay: Fluorescence quenching binding assay with FeuA-His6; design: species or system B. subtilis 168
[7] = test system: esterase BesA; assay: BesA-catalyzed hydrolysis of ferric complexes followed by UV-Vis spectroscopy; type: biochemical, B. cereus ATCC 14579; details: 100 μM substrate, 1 μM enzyme, 75 mM HEPES pH 7.5, UV-Vis over 12 h
[8] = Strong acid hydrolysis followed by HPLC; type: physicochemical; details: 1 mg/mL, 6 M HCl, stirred 12 h (overnight)
[9] = cited from earlier work; for log K3: [LH2]^4-; for log K4: [LH3]^3-; for log K5: [LH4]^2-; for log K6: [LH5]^-; for log K2: [LH]^5-; for log K1: [L]^6-; for Σlog K1-6: sum of the stepwise protonation constants
[10] = cited from earlier work; for log β110: [FeL]^3-; for pM(Fe^III): pH 7.4, 1 μM total iron, 10 μM total ligand
[11] = test system: esterase Fes; details: cited from earlier work
[12] = test system: B. subtilis ATCC 6051; assay: 55Fe-siderophore transport assay; type: cell-based; details: 37 °C, iron-limited medium
[13] = test system: esterase Fes; assay: Fes-catalyzed hydrolysis of siderophores; type: biochemical; details: Fes from Shigella flexneri, 64 μM substrates, 72 nM enzymes, HPLC
[14] = test system: E. coli; details: incorporated through FepA; cited from earlier work
[15] = test system: B. subtilis ATCC 6051; details: cited from earlier work

Chain of substrate-binding protein FeuA (P40409 21-317): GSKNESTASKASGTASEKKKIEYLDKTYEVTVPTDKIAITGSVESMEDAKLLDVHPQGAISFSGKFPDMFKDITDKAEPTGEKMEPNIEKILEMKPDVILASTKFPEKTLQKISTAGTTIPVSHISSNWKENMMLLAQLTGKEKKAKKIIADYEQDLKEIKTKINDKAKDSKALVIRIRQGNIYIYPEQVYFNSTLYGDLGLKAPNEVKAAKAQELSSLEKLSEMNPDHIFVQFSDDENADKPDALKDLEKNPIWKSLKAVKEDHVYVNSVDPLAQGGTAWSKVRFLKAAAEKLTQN

O=C(CNC(=O)c1cccc(O)c1O)N[C@H]1COC(=O)[C@@H](NC(=O)CNC(=O)c2cccc(O)c2O)COC(=O)[C@@H](NC(=O)CNC(=O)c2cccc(O)c2O)COC1=O [SGC, SERglyCAM]
log K4 ([1]; [LH3]^3-, 0.1 M KCl, 25 °C): 8.37(3) | log K5 ([1]; [LH4]^2-, 0.1 M KCl, 25 °C): 7.54(2) | log K6 ([1]; [LH5]^-, 0.1 M KCl, 25 °C): 6.68(3) | Σlog K1-6 ([1]; sum of the stepwise protonation constants): 58.89 | log β110 ([2]; [FeL]^3-, competition with EDTA, 0.1 M KCl, 25 °C, pH 5 to 7.5): 44.1(2) | pM(Fe^III) ([2]; pH 7.4, 1 μM total iron, 10 μM total ligand): 29.6 | growth promotion of B. subtilis HB5600 (in words) [3]: promoted growth | growth stimulation of B. subtilis HB5625, feuA deleted (in words) [4]: prevented growth stimulation | hydrolysis of the apo siderophore by BesA [5]: hydrolyzed sequentially

C[C@H]1OC(=O)[C@@H](NC(=O)CNC(=O)c2cccc([O-])c2[O-])[C@@H](C)OC(=O)[C@@H](NC(=O)CNC(=O)c2cccc([O-])c2[O-])[C@@H](C)OC(=O)[C@H]1NC(=O)CNC(=O)c1cccc([O-])c1[O-].[Fe+3] [[Fe^III(BB)]^3-]
Kd [6]: 15 nM | reaction of the ferric complex with BesA [7]: the UV-Vis spectra changed

O=C(N[C@H]1COC(=O)[C@@H](NC(=O)c2cccc(O)c2O)COC(=O)[C@@H](NC(=O)c2cccc(O)c2O)COC1=O)c1cccc(O)c1O [Ent, Enterobactin]
growth promotion of B. subtilis HB5600 (in words) [3]: promoted growth | growth stimulation of B. subtilis HB5625, feuA deleted (in words) [4]: prevented growth stimulation | hydrolysis of the apo siderophore by BesA [5]: hydrolyzed sequentially | resistance to acid hydrolysis [8]: completely degraded | log K3 [9]: 12.1 | log K4 [9]: 8.6 | log K5 [9]: 7.5 | log K6 [9]: 6.0 | log K2 [9]: 12.1 | log K1 [9]: 12.1 | Σlog K1-6 [9]: 58.4 | log β110 [10]: 49 | pM(Fe^III) [10]: 34.3 | hydrolysis by Fes [11]: subject to enzymatic sequential hydrolysis

O=C(CNC(=O)c1cccc([O-])c1[O-])N[C@H]1COC(=O)[C@@H](NC(=O)CNC(=O)c2cccc([O-])c2[O-])COC(=O)[C@@H](NC(=O)CNC(=O)c2cccc([O-])c2[O-])COC1=O.[Fe+3] [[Fe^III(SGC)]^3-]
Kd [6]: 52 nM | iron transport into B. subtilis [12]: transported into B. subtilis at levels similar to that of [Fe^III(BB)]^3- | reaction of the ferric complex with BesA [7]: the UV-Vis spectra changed

O=C(CNC(=O)c1cccc(O)c1O)N[C@@H]1COC(=O)[C@H](NC(=O)CNC(=O)c2cccc(O)c2O)COC(=O)[C@H](NC(=O)CNC(=O)c2cccc(O)c2O)COC1=O [D-SGC, N,N′,N″-Tris[2,3-dihydroxybenzoyl-glycinyl]cyclotri-D-seryl trilactone]
growth promotion of B. subtilis HB5600 (in words) [3]: no significant zone of growth stimulation | hydrolysis of the apo siderophore by BesA [5]: no effect; also recorded: did not affect | hydrolysis by Fes [13]: did not react

O=C(N[C@@H]1COC(=O)[C@H](NC(=O)c2cccc([O-])c2[O-])COC(=O)[C@H](NC(=O)c2cccc([O-])c2[O-])COC1=O)c1cccc([O-])c1[O-].[Fe+3] [[Fe^III(D-Ent)]^3-]
Kd [6]: 10 nM | reaction of the ferric complex with BesA [7]: No change in the absorption spectra | hydrolysis by Fes [11]: neither apo-D-Ent nor [Fe^III(D-Ent)]^3- are hydrolyzed by Fes | growth promotion of E. coli [14]: does not promote growth

C[C@H]1OC(=O)[C@@H](NC(=O)CNC(=O)c2cccc(O)c2O)[C@@H](C)OC(=O)[C@@H](NC(=O)CNC(=O)c2cccc(O)c2O)[C@@H](C)OC(=O)[C@H]1NC(=O)CNC(=O)c1cccc(O)c1O [BB, bacillibactin]
growth promotion of B. subtilis HB5600 (in words) [3]: promoted growth | growth stimulation of B. subtilis HB5625, feuA deleted (in words) [4]: prevented growth stimulation | hydrolysis of the apo siderophore by BesA [5]: hydrolyzed sequentially | hydrolysis by Fes [13]: did not react | resistance to acid hydrolysis [8]: remained essentially intact | log K3 [9]: 12.1 | log K4 [9]: 8.43 | log K5 [9]: 7.43 | log K6 [9]: 6.77 | log K2 [9]: 12.1 | log K1 [9]: 12.1 | Σlog K1-6 [9]: 58.93 | log β110 [10]: 47.6 | pM(Fe^III) [10]: 33.1

O=C(N[C@@H]1COC(=O)[C@H](NC(=O)c2cccc(O)c2O)COC(=O)[C@H](NC(=O)c2cccc(O)c2O)COC1=O)c1cccc(O)c1O (single isomer, unassigned; ent d) [D-Ent, D-enterobactin]
growth promotion of B. subtilis HB5600 (in words) [3]: no significant zone of growth stimulation | hydrolysis of the apo siderophore by BesA [5]: no effect; also recorded: did not affect | transport properties in B. subtilis [15]: same transport properties as Ent | hydrolysis by Fes [11]: neither apo-D-Ent nor [Fe^III(D-Ent)]^3- are hydrolyzed by Fes

O=C(N[C@H]1COC(=O)[C@@H](NC(=O)c2cccc([O-])c2[O-])COC(=O)[C@@H](NC(=O)c2cccc([O-])c2[O-])COC1=O)c1cccc([O-])c1[O-].[Fe+3] [[Fe^III(Ent)]^3-]
Kd [6]: 19 nM | reaction of the ferric complex with BesA [7]: the UV-Vis spectra changed | hydrolysis by Fes [11]: subject to enzymatic sequential hydrolysis

— PMC2782669 (Journal of the American Chemical Society, 2009)
